# Test results from article PMC9380671, “Development of spiro-3-indolin-2-one containing compounds of antiproliferative and anti-SARS-CoV-2 properties” (Scientific Reports, 2022).
# Like-named read-outs stand apart in the source and are kept apart here.
# Assays:
# [1] = system: MCF7 (breast) cancer cell line; experiment: MTT antiproliferation, MCF7; type: cell-based, human; settings: for IC50: Homo sapiens, MCF7, 72 h, read-out: IC50 (µM) ± SEM MCF7; for SI (selectivity index) MCF7: IC50 of RPE1/IC50 of cancer cell line
# Description: (§1) Antiproliferation properties of the targeted agents were investigated by the standard MTT technique against diverse human cancer cell lines [MCF7 (breast), HCT116 (colon), A431 (skin squamous) and PaCa2 (pancreatic)][67] (Table 1, Supplementary Figs. S48‒S51).
# (§2) Cells were seeded at concentration of 30000 cells per well in fresh complete growth medium in 96-well tissue culture microtiter plates for 24 h. […] 0.5% DMSO was used as negative control. Triplicate wells were prepared for each individual dose. After 72 h of incubation, medium was aspirated, 40 μl MTT salt (2.5 mg ml^-1) was added to each well and incubated for further 4 h at 37 °C. To stop the reaction and dissolve the formed crystals, 150 μl of 10% sodium dodecyl sulfate (SDS) in deionized water was added to each well and incubated overnight at 37 °C.
# (§3) Data were collected as mean values for experiments performed in triplicates for each individual dose which had been measured by MTT assay. […] The cell surviving fraction was calculated according to the following equation.
# (§4) Surviving fraction = OpticaldensityO.D.oftreatedcellsO.D.ofcontrolcells
# (§5) Statistical calculations for determination of the mean and standard error mean values were determined by SPSS 16 software.
# [2] = system: HCT116 (colon) cancer cell line; experiment: MTT antiproliferation, HCT116; type: cell-based, human; settings: for IC50: Homo sapiens, HCT-116, 72 h, read-out: IC50 (µM) ± SEM HCT116; for SI (selectivity index) HCT116: IC50 of RPE1/IC50 of cancer cell line
# Description: as §1, §2, §3, §4, §5
# [3] = system: A431 (skin squamous) cancer cell line; experiment: MTT antiproliferation, A431; type: cell-based, human; settings: for IC50: Homo sapiens; for SI (selectivity index) A431: IC50 of RPE1/IC50 of cancer cell line
# Description: as §1, §2, §3, §4, §5
# [4] = system: PaCa2 (pancreatic) cancer cell line; experiment: MTT antiproliferation, PaCa-2; type: cell-based, human; settings: for IC50: Homo sapiens, PaCa-2, 72 h, read-out: IC50 (µM) ± SEM PaCa-2; for SI (selectivity index) PaCa-2: IC50 of RPE1/IC50 of cancer cell line
# Description: as §1
# Cells were suspended in DMEM medium for MCF7, A431, PaCa-2 and McCoy’s 5A for HCT116 in addition to 1% antibiotic–antimycotic mixture (10000 μg ml^-1 potassium penicillin, 10000 μg ml^-1 streptomycin sulfate and 25 μg ml^-1 amphotericin B), 10% fetal bovine serum and 1% L-glutamine at 37 °C, under 5% CO2 and 95% humidity. Cells were seeded at concentration of 30000 cells per well in fresh complete growth medium in 96-well tissue culture microtiter plates for 24 h. Media was aspirated, fresh complete medium was added and cells were incubated with different concentrations of the tested compound to give a final concentration of [50, 25, 12.5 and 6.25 μM “in addition to 3.125, 1.56 and 0.78 μM in case of high potent analogues”). 0.5% DMSO was used as negative control. Triplicate wells were prepared for each individual dose. After 72 h of incubation, medium was aspirated, 40 μl MTT salt (2.5 mg ml^-1) was added to each well and incubated for further 4 h at 37 °C. To stop the reaction and dissolve the formed crystals, 150 μl of 10% sodium dodecyl sulfate (SDS) in deionized water was added to each well and incubated overnight at 37 °C. The absorbance was then measured at 570 nm and a reference wavelength of 595 nm.
# as §3, §4
# (§6) Statistical calculations for determination of the mean and standard error mean values were determined by SPSS 16 software. The observed anti-proliferative properties are presented in Table 1 (Supplementary Figs. S48‒S52).
# [5] = system: RPE1 (normal human immortalized retinal pigment epithelial cell line); experiment: MTT toxicity towards normal cells, RPE1; type: cell-based; settings: RPE-1, read-out: IC50 (µM) ± SEM RPE1
# Description: The safety of the synthesized agents against non-cancer/normal RPE1 (retinal pigment epithelium) cell line was assessed (Table 1, Supplementary Fig. S52). The SI (selectivity index) for the tested compounds against RPE1 cell line confirms the safety towards non-cancer cells. […] Compound 6d and 6h which are also of high anti-PaCa2 show remarkable SI values (SI = > 3.8, > 3.6, respectively).
# The agents synthesized were also tested against RPE1 (normal human immortalized retinal pigment epithelial cell line) cell (in DMEM-F12 medium) to determine the toxicity/selectivity towards normal cells relative to the cancer cell lines utilized.
# as §6
# EGFR = molecular target: T1, EGFR (Homo sapiens, UniProt P00533); type: cell-based; settings: western blot, MCF7, compound at its MTT IC50; for EGFR RQ (relative quantification): control RQ 3.4461
# T1 construct: Western blot technique was considered for EGFR and VEGFR-2 properties determination; endogenous in cells; host or cells: MCF7 (breast cancer cell line)
# T1 sequence (P00533 25-1210): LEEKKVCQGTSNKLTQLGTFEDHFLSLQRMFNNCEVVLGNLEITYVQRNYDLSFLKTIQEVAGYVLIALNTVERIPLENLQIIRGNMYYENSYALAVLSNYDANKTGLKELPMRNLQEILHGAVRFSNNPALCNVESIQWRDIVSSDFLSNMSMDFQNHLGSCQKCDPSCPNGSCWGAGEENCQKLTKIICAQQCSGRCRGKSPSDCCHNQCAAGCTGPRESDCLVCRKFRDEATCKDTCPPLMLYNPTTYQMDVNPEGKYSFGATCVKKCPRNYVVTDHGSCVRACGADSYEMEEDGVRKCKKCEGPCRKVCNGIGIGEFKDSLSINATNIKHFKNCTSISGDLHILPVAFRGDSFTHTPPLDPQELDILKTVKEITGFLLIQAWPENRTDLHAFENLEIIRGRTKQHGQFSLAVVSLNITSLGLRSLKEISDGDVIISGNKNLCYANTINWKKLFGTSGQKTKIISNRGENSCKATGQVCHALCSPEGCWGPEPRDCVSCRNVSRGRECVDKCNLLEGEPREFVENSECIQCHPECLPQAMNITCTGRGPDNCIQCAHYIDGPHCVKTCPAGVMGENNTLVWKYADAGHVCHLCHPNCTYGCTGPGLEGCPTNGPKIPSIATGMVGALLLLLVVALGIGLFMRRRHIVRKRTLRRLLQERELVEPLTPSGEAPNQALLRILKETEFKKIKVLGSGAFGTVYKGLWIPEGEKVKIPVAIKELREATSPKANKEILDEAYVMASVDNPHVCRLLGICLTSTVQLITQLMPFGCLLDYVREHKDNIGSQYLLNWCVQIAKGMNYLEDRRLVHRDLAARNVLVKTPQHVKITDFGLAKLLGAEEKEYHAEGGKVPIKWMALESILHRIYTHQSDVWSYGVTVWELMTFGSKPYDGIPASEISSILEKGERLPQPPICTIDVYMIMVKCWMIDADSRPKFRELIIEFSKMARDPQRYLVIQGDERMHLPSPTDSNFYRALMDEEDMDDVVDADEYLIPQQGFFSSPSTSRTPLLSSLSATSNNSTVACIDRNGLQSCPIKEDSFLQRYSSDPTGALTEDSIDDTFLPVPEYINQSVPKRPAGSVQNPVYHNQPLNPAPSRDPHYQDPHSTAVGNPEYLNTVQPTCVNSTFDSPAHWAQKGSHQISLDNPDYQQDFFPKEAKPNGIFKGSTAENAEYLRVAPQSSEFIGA
# Text: (§7) The western blot technique was applied utilizing the IC50 observed for each respective agent synthesized during MTT assay[85],[86]. Consideration of multi-targeted inhibitory properties investigation is based in the fact that cancer initiation and proliferation sometimes utilizes many receptors or signaling pathways.
# (§8) Western blot technique was considered for EGFR and VEGFR-2 properties determination utilizing the IC50 observed of each respective agent synthesized during MTT assay against MCF7 (breast) cancer cell line. All the studies were conducted according to the manufacturer’s instruction.^10,^11
# VEGFR-2 = molecular target: T2, VEGFR-2 (Homo sapiens, UniProt P35968); type: cell-based; settings: western blot, MCF7, compound at its MTT IC50; for VEGFR-2 RQ (relative quantification): control RQ 3.2634
# T2 construct: Western blot technique was considered for EGFR and VEGFR-2 properties determination; endogenous in cells; host or cells: MCF7 (breast cancer cell line)
# T2 sequence (P35968 20-1356): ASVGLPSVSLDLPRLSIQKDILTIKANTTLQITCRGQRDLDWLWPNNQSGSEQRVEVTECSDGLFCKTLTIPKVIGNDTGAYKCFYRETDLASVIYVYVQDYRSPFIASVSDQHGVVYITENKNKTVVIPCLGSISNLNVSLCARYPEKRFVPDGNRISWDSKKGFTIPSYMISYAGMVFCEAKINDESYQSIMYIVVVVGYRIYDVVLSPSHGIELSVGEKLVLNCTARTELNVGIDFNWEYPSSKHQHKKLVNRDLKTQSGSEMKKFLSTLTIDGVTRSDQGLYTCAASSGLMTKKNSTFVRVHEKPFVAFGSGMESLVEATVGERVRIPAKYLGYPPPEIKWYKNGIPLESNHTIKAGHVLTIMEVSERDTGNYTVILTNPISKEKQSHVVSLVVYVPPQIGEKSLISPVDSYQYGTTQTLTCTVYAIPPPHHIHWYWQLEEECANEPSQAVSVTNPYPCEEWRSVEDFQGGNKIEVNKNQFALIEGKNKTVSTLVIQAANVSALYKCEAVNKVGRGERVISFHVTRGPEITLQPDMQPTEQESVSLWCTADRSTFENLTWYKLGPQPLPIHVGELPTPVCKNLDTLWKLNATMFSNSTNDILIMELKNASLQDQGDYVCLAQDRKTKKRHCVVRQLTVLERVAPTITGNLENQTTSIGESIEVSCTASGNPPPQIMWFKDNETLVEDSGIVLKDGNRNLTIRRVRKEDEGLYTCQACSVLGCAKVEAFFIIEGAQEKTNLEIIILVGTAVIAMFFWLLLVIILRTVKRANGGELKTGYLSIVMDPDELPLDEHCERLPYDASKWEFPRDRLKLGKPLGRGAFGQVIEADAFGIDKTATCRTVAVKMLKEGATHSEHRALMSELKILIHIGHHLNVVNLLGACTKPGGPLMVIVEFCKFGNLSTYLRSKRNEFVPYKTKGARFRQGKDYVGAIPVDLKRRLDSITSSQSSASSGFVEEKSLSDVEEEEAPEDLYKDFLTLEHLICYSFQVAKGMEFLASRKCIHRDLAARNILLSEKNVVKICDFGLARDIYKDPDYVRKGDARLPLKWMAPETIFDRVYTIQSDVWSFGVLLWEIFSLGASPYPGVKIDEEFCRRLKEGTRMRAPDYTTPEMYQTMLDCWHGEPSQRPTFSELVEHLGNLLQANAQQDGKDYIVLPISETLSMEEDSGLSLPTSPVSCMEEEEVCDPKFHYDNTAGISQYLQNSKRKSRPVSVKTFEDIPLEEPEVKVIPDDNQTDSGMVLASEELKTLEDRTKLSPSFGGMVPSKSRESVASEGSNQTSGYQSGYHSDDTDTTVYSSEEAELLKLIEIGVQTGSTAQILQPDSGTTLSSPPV
# Text: as §7, §8
# [6] = system: SARS-CoV-2 (hCoV-19/Egypt/NRC-03/2020); experiment: Vero-E6 cell viral infection model, anti-SARS-CoV-2 IC50 (CPE, crystal violet); type: cell-based; settings: for IC50: Severe acute respiratory syndrome coronavirus 2, Vero C1008; for SI = CC50/IC50: Vero-E6, SARS-CoV-2
# [7] = MTT cytotoxicity assay (CC50); type: cell-based; settings: African green monkey, VERO-E6 cells
# Description: The cytotoxic activity of the compounds was tested in VERO-E6 cells by using the 3-(4,5-dimethylthiazol-2-yl)-2,5-diphenyltetrazolium bromide (MTT) method with minor modifications. Briefly, the cells were seeded in 96 well-plates […] at a density of 3 x 10^5 cell/ml and incubated for 24 h at 37 °C in 5% CO2. After 24 h, cells were treated with various concentrated of the tested compounds in triplicates. 24 h later, the supernatant was discarded and cell monolayers were washed with sterile 1x phosphate buffer saline (PBS) 3 times and MTT solution (20 µl of 5 mg/ml) was added to each well and incubated at 37 °C for 4 h followed by medium aspiration. In each well, the formed formazan crystals were dissolved with 200 µl of acidified isopropanol (0.04 M HCl in absolute isopropanol = 0.073 ml HCl in 50 ml isopropanol). Eventually, the absorbance was measured at λmax 570 nm using the Anthos Zenyth 200rt plate reader (Anthos Labtec Instruments, Heerhugowaard, Netherlands). The cytotoxicity of various concentrations compared to the untreated cells was determined using nonlinear regression analysis by plotting log inhibitor versus normalized response.^12^-14
# AChE = AChE (Homo sapiens, UniProt P22303); experiment: AChE inhibition (DTNB, acetylthiocholine); type: biochemical; settings: for IC50: read-out: AChE (IC50, μM) ± SD
# Chain of AChE (P22303 32-614): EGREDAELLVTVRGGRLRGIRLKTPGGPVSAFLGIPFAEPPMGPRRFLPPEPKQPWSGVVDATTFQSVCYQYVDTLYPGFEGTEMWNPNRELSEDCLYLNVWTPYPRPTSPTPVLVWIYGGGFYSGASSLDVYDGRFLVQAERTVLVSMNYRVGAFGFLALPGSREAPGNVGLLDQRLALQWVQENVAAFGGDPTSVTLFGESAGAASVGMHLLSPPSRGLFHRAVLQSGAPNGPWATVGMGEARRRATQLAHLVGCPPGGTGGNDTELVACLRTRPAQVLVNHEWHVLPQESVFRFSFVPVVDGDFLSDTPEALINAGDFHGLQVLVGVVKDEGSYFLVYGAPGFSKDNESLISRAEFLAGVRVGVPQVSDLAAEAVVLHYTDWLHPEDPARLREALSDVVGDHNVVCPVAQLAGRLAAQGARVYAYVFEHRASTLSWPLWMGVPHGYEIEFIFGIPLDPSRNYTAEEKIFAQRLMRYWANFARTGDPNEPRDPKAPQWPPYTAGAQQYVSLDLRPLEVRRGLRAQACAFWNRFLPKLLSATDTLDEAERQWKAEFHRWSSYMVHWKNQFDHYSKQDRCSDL
# Description: All compounds were dissolved in MeOH.
# BChE = BChE (Homo sapiens, UniProt P06276); experiment: BChE inhibition (DTNB, butyrylthiocholine iodide)
# Chain of BChE (P06276 29-602, species assumed): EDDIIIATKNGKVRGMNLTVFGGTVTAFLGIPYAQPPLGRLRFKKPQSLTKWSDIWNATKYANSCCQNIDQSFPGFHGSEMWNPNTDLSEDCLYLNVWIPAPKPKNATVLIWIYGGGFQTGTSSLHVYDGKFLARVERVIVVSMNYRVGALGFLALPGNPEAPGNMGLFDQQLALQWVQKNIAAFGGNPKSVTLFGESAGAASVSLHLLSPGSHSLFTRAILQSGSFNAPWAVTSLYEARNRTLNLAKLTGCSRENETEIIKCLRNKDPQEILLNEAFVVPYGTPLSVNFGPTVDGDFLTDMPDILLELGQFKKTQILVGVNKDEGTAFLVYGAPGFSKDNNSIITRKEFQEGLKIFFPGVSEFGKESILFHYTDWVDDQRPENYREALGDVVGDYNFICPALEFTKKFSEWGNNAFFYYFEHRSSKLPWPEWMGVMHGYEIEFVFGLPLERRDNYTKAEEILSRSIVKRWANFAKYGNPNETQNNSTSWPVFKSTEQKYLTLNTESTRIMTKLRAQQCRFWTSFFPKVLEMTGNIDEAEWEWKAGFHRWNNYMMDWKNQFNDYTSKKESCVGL
# [8] = A-431, 72 h, read-out: IC50 (µM) ± SEM A431
# [9] = A-431, read-out: Observed log(IC50, μM) (A431) (converted)
# [10] = Vero-E6, 72 h, reduction of virus-induced CPE, read-out: IC50 (µM) SARS-CoV-2
# [11] = log of observed IC50 in μM, read-out: Observed log(IC50, μM) (SARS-CoV-2) (converted)
SMILES,IC50 [1] [µM],SI (selectivity index) MCF7 [1],IC50 [2] [µM],SI (selectivity index) HCT116 [2],"IC50 [3, 8] [µM]","IC50 [3, 9] [µM]",SI (selectivity index) A431 [3],IC50 [4] [µM],SI (selectivity index) PaCa-2 [4],IC50 [5] [µM],EGFR % Inhibition (EGFR) [%],EGFR RQ (relative quantification) (EGFR),VEGFR-2 % Inhibition (VEGFR-2) [%],VEGFR-2 RQ (relative quantification) (VEGFR-2),"IC50 [6, 10] [µM]","IC50 [6, 11] [µM]",SI = CC50/IC50 [6],CC50 at 24 h [7] [µM],SI = IC50 (AChE)/IC50 (BChE) (AChE),IC50 (AChE) [µM],further results
"CN1CC(c2ccc(F)cc2)C2(CN(S(C)(=O)=O)C/C(=C\c3ccc(F)cc3)C2=O)C12C(=O)Nc1ccc(Cl)cc12 (centres unmarked) [Compound 6f, (E)-5-Chloro-5″-(4-fluorobenzylidene)-4′-(4-fluorophenyl)-1′-methyl-1″-(methylsulfonyl)dispiro[indoline-3,2′-pyrrolidine-3′,3″-piperidine]-2,4″-dione]",5 ± 0.39,3.6,5.43 ± 0.46,3.3,4.76 ± 0.37,4.76,3.7,11.7 ± 0.94,1.5,17.8 ± 0.87,69.3,1.058,64.7,1.153,7.67,7.67,8.8,67.8,1.0,3.89 ± 1.66,times the potency of chloroquine against SARS-CoV-2 ([6]; ratio of IC50 values): about 3.3 times; times the potency of hydroxychloroquine against SARS-CoV-2 ([6]; ratio of IC50 values): ~4.8 times; IC50 (BChE): 3.75 ± 0.71 µM
"CCS(=O)(=O)N1C/C(=C\c2ccc(F)cc2)C(=O)C2(C1)C(c1ccc(F)cc1)CN(C)C21C(=O)Nc2ccccc21 (centres unmarked) [Compound 6g, (E)-1″-(Ethylsulfonyl)-5″-(4-fluorobenzylidene)-4′-(4-fluorophenyl)-1′-methyldispiro[indoline-3,2′-pyrrolidine-3′,3″-piperidine]-2,4″-dione]",10.3 ± 0.86,3.2,4.94 ± 0.25,6.8,6.17 ± 0.44,6.17,5.4,28.4 ± 0.85,1.2,33.4 ± 1.22,62.8,1.28,63.7,1.186,16.9,16.9,4.7,79.2,0.8,2.46 ± 0.99,IC50 (BChE): 3.22 ± 0.92 µM
"CCS(=O)(=O)N1C/C(=C\c2ccc(F)cc2)C(=O)C2(C1)C(c1ccc(F)cc1)CN(C)C21C(=O)Nc2ccc(Cl)cc21 (centres unmarked) [Compound 6h, (E)-5-Chloro-1″-(ethylsulfonyl)-5″-(4-fluorobenzylidene)-4′-(4-fluorophenyl)-1′-methyldispiro[indoline-3,2′-pyrrolidine-3′,3″-piperidine]-2,4″-dione]",4.69 ± 0.44,> 10.7,4.6 ± 0.18,> 10.9,6.04 ± 0.26,6.04,> 8.3,14 ± 0.73,> 3.6,> 50,67.2,1.13,66.2,1.104,7.69,7.69,34.1,262,0.8,6.3 ± 0.97,IC50 (BChE): 8.07 ± 1.47 µM
"CN1CC(c2ccc(Cl)cc2)C2(CN(S(C)(=O)=O)C/C(=C\c3ccc(Cl)cc3)C2=O)C12C(=O)Nc1ccccc12 (centres unmarked) [Compound 6i, (E)-5″-(4-Chlorobenzylidene)-4′-(4-chlorophenyl)-1′-methyl-1″-(methylsulfonyl)dispiro[indoline-3,2′-pyrrolidine-3′,3″-piperidine]-2,4″-dione]",5.01 ± 0.29,2.9,5.47 ± 0.32,2.7,4.4 ± 0.49,4.4,3.4,9.04 ± 0.62,1.6,14.8 ± 1.57,68.7,1.077,64.2,1.1684,113,113,2.1,235,1.3,18.2 ± 1.48,IC50 (BChE): 13.6 ± 2.12 µM
"CN1CC(c2ccc(Cl)cc2)C2(CN(S(C)(=O)=O)C/C(=C\c3ccc(Cl)cc3)C2=O)C12C(=O)Nc1ccc(Cl)cc12 (centres unmarked) [Compound 6j, (E)-5-Chloro-5″-(4-chlorobenzylidene)-4′-(4-chlorophenyl)-1′-methyl-1″-(methylsulfonyl)dispiro[indoline-3,2′-pyrrolidine-3′,3″-piperidine]-2,4″-dione]",4.51 ± 0.39,2.8,4.72 ± 0.25,2.6,4.08 ± 0.21,4.08,3.1,8.83 ± 0.51,1.4,12.5 ± 0.86,63.3,1.2634,57.9,1.3745,27.1,27.1,7.4,201,1.9,42.8 ± 4.61,IC50 (BChE): 22.3 ± 3.33 µM
